What was measured:
[1] = Total body clearance in human at 1000 mg, iv infused for 5 mins; details: in vivo
Homo sapiens [2] = organism: Homo sapiens; test: Nonrenal clearance in human at a loading dose of 1 g and maintenance dose of 1.2 g/h for 3 hrs; type: ADME, organism-based; details: in vivo
[3] = Terminal half life in human at 1000 mg, iv infused for 5 mins; type: ADME, organism-based; details: in vivo, read-out: beta t1/2 (converted)
Homo sapiens [4] = test: Nonrenal clearance in human at 500 mg, iv infused for 5 mins; type: ADME, organism-based; details: in vivo
[5] = Renal clearance in human at 500 mg, iv infused for 5 mins; type: ADME, organism-based, Kidney; details: in vivo, read-out: CL_renal (converted)
[6] = Protein binding in human plasma; type: ADME, cell-free; details: read-out: PPB (converted)
Staphylococcus aureus [7] = test: Bacteriostatic activity against methicillin-susceptible Staphylococcus aureus infected human at MIC of 1.5 mg/l at 2 g, iv administered every 8 hrs as 4 hrs infusions; type: functional
[8] = Plasma concentration in human at 1000 mg, iv infused for 5 mins; type: ADME, organism-based
Homo sapiens [9] = test: Metabolic stability in human assessed as urinary excretion of unchanged drug level at 500 mg, iv infused for 5 mins; type: ADME, organism-based, Urine; details: in vivo
Staphylococcus aureus [10] = test: Bactericidal activity against methicillin-susceptible Staphylococcus aureus infected human at MIC of 1 mg/l at 2 g, iv administered every 4 hrs as 0.5 hrs infusion; type: functional
Homo sapiens [11] = test: Metabolic stability in human assessed as urinary excretion of unchanged drug level at 1000 mg, iv infused for 5 mins; type: ADME, organism-based, Urine; details: in vivo
[12] = Renal clearance in human at a loading dose of 1 g and maintenance dose of 1.2 g/h for 3 hrs; type: ADME, organism-based, Kidney; details: in vivo, iv, read-out: CL_renal (converted)
[13] = Terminal half life in human at 500 mg, iv infused for 5 mins; type: ADME, organism-based; details: in vivo, read-out: beta t1/2 (converted)
Staphylococcus aureus [14] = test: Bacteriostatic activity against methicillin-susceptible Staphylococcus aureus infected human at MIC of 0.75 mg/l at 1.5 g, iv administered every 6 hrs as 0.5 hrs infusion; type: functional
[15] = Mean residence time in human at 500 mg, iv infused for 5 mins; type: ADME, organism-based; details: in vivo
Staphylococcus aureus [16] = test: Bacteriostatic activity against methicillin-susceptible Staphylococcus aureus infected human at MIC of 2 mg/l at 2 g, iv administered every 4 hrs as 0.5 hrs infusion; type: functional
Staphylococcus aureus [17] = test: Bactericidal activity against methicillin-susceptible Staphylococcus aureus infected human at MIC of 0.25 mg/l at 1.5 g, iv administered every 6 hrs as 0.5 hrs infusion; type: functional
[18] = Plasma concentration in human at 500 mg, iv infused for 5 mins; type: ADME, organism-based
[19] = Renal clearance in human at 1000 mg, iv infused for 5 mins; type: ADME, organism-based, Kidney; details: in vivo, read-out: CL_renal (converted)
Staphylococcus aureus [20] = test: Bacteriostatic activity against methicillin-susceptible Staphylococcus aureus infected human at MIC of 0.75 mg/l at 6 g, iv administered as continuous infusion for 4 hrs; type: functional
Staphylococcus aureus [21] = test: Antibacterial activity against methicillin-susceptible Staphylococcus aureus; type: functional
[22] = Mean residence time in human at 1000 mg, iv infused for 5 mins; type: ADME, organism-based; details: in vivo
Staphylococcus aureus [23] = test: Bactericidal activity against methicillin-susceptible Staphylococcus aureus infected human at MIC of 0.75 mg/l at 6 g, iv administered as continuous infusion for 4 hrs; type: functional
[24] = Total clearance in human at 1 g, iv infused for 5 mins; details: in vivo
[25] = Total body clearance in human at 500 mg, iv infused for 5 mins; details: in vivo
Staphylococcus aureus [26] = test: Bactericidal activity against methicillin-susceptible Staphylococcus aureus infected human at MIC of 0.75 mg/l at 2 g, iv administered every 8 hrs as 4 hrs infusion; type: functional
[27] = Volume of distribution at steady state in human at 500 mg, iv infused for 5 mins; type: ADME, organism-based; details: in vivo, read-out: Vdss
[28] = Volume of distribution at steady state in human at 1000 mg, iv infused for 5 mins; type: ADME, organism-based; details: in vivo, read-out: Vdss
Homo sapiens [29] = test: Nonrenal clearance in human at 1000 mg, iv infused for 5 mins; type: ADME, organism-based; details: in vivo
clinical = details: human, in vivo
Description: Total clearance in human at a loading dose of 1 g and maintenance dose of 1.2 g/h for 3 hrs

With `Cc1onc(-c2c(F)cccc2Cl)c1C(=O)N[C@@H]1C(=O)N2[C@@H]1SC(C)(C)[C@@H]2C(=O)O` [FLOXACILLIN] the clearance at 5 min [1] was 136 mL/min, the CL (Homo sapiens [2]) was 2.1 L/h and the half-life [3] was 1.62 h. The CL (Homo sapiens [4]) was 2.72 L/h, the CL renal at 5 min [5] was 89.5 mL/min and the fraction unbound [6] was 0.054. For the same compound, the “fT>MIC” value (Staphylococcus aureus [7]) was “>=30%”, the concentration at 5 min [8] was 167 µg/mL and the Activity (Homo sapiens [9]) was 0.66. The “fT>MIC” value (Staphylococcus aureus [10]) was “>=50%”, the Activity (Homo sapiens [11]) was 0.65 and the CL renal at 3 h [12] was 88.3 mL/min. For the same compound, the half-life [13] was 1.4 h, the Activity (Staphylococcus aureus [14]) was greater than 30% and the MRT [15] was 1.18 h. The “fT>MIC” value (Staphylococcus aureus [16]) was “>=30%”, the “fT>MIC” value (Staphylococcus aureus [17]) was “>=50%” and the concentration at 5 min [18] was 86.8 µg/mL. For the same compound, the CL renal at 5 min [19] was 88.2 mL/min, the “fT>MIC” value (Staphylococcus aureus [20]) was “>=30%” and the MIC90 (Staphylococcus aureus [21]) was no more than 0.5 µg/mL. The MRT [22] was 1.22 h, the “fT>MIC” value (Staphylococcus aureus [23]) was “>=50%” and the clearance at 5 min [24] was 118 mL/min. The clearance at 5 min [25] was 136 mL/min, the “fT>MIC” value (Staphylococcus aureus [26]) was “>=50%” and the Vd [27] was 9.63 L. The Vd [28] was 9.97 L, the CL (Homo sapiens [29]) was 2.79 L/h and the clearance at 3 h (clinical) was 123 mL/min.
